Experimental findings from EP4725941A1, “ARYLAMIDE DERIVATIVE HAVING ANTITUMOR ACTIVITY” (priority 2020, dated 2021) are described below.

In one data set the test system is NCI-H2122. In words: Cell proliferation-inhibiting activity (ATP in viable cells, CellTiter-Glo), NCI-H2122. The data set is classed as cell-based, human. Particulars: read-out: NCI-H2122 IC50. (ATP-based viability assays read luminescence as a measure of living cells.)
The nature of data set [1]: Human liver microsome stability. The format is in vitro ADME. The following applies: human liver microsomes, pH 7.4.
The next data set concerns the target T1, MEK1 (Homo sapiens, UniProt Q02750).
T1 construct: purchased Thermo Fisher Scientific Inc. (MEK1, CRAF); Carna Biosciences, Inc. (ERK2)
In words: MEK1-inhibiting activity, fluorescent polarization method (CRAF/MEK1/ERK2 cascade, IMAP). The data set is classed as biochemical. How it is done:
The MEK1-inhibiting activity of the compounds listed in Table 3 below were evaluated by the fluorescent polarization method as described below.

A further data set has as its system A549. Nature of the data set: Cell proliferation-inhibiting activity (ATP in viable cells, CellTiter-Glo), A549. The data set is classed as cell-based, human. Particulars: read-out: A549 IC50.
The subject of another data set is Calu-6. Nature of the data set: Cell proliferation-inhibiting activity (ATP in viable cells, CellTiter-Glo), Calu-6. The following applies: read-out: Calu-6 IC50. The data set is classed as cell-based, human.
The next data set deals with T2, BRAF (Homo sapiens, UniProt P15056).
T2 construct: purchased Eurofins Genomics KK; (BRAF); Thermo Fisher Scientific Inc. (MEK1)
Nature of the data set: BRAF-inhibiting activity, time-resolved fluorescence-fluorescence resonance energy transfer assay. The format is biochemical. The method, then:
The BRAF-inhibiting activity of the compounds listed in Table 3 below was evaluated by the time-resolved fluorescence-fluorescence resonance energy transfer assay as described below.

Setting [2] is: NCI-H2122, 96 h, human lung cancer cells, 4 days.
The mark [3] stands for this setting: A549, 96 h, human lung cancer cells, 4 days.
The mark [4] stands for this setting: Calu-6, 96 h, human lung cancer cells, 4 days.
Setting [5] is: human lung cancer cells, 4 days.

pIC50: −log10 of the molar value. Where two headings read alike, the source gives them in different places.

T1 sequence (Q02750 whole entry): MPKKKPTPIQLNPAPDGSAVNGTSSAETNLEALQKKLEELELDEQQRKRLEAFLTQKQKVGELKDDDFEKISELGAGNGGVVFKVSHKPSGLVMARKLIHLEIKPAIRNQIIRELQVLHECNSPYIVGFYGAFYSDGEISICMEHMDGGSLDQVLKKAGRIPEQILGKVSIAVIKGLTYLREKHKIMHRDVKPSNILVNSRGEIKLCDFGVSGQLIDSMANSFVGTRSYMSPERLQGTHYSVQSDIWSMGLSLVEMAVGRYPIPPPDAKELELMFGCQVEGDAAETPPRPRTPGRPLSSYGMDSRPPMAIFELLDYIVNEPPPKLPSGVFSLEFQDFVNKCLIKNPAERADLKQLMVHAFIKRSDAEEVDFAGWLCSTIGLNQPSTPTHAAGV
T2 sequence (P15056 417-766 limits assumed): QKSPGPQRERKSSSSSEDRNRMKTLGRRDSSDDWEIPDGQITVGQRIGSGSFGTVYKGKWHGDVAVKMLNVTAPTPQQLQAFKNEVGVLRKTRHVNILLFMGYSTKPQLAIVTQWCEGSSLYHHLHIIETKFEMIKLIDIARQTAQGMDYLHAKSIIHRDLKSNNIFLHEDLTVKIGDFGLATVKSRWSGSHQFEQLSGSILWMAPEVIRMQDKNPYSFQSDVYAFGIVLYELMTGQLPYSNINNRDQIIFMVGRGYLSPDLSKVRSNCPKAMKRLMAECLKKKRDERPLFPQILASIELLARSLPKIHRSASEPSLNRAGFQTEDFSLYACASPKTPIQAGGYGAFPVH

Broadly, the pIC50 is the negative decadic logarithm of the IC50, by convention in mol/L. Usually microsomal CLint stands for the capacity of the preparation to metabolise the compound, expressed as a volume cleared per time. Lower therefore signals greater metabolic stability. As for `CNS(=O)(=O)Nc1nccc(Cc2cc(C(=O)NC3CC3C)c(Nc3ccc(I)cc3F)c(F)c2F)c1F` (mixture of isomers) [Compound B-3, 3,4-Difluoro-2-(2-fluoro-4-iodoanilino)-5-[[3-fluoro-2-(methylsulfamoylamino)pyridin-4-yl]methyl]-N-(2-methylcyclopropyl)benzamide (mixture of 4 isomers)], the pIC50 in the data set with NCI-H2122 (setting [2]) is 9.00; at MEK1 (Table 3, read-out: MEK1 IC50), 7.09; in the data set with A549 (setting [3]), 8.70; in the data set with Calu-6 (setting [4]), 7.85; at BRAF (read-out: BRAF IC50; Table 3) it was 8.40. In data set [1], this molecule gave an intrinsic clearance (microsomal CLint) at 0.99 µM of 22 µL/min/mg.
As to `CNS(=O)(=O)Nc1nccc(Cc2cc(C(=O)N[C@H]3C[C@H]3C)c(Nc3ccc(I)cc3F)c(F)c2F)c1F` (racemic) [Compound B-4, 3,4-Difluoro-2-(2-fluoro-4-iodoanilino)-5-[[3-fluoro-2-(methylsulfamoylamino)pyridin-4-yl]methyl]-N-[(1S, 2R)-(+/-)-2-methylcyclopropyl]benzamide (racemate)], the negative logarithm of the IC50 (pIC50) was 9.00 in the data set on NCI-H2122 (setting [2]); 7.72 on MEK1; 8.70 in the data set on A549 (setting [3]); 8.22 with Calu-6 (setting [4]); 8.30 at BRAF (Table 3; read-out: BRAF IC50). The microsomal CLint at 0.99 µM in data set [1] amounted to 28 µL/min/mg.
Regarding `CNS(=O)(=O)Nc1nccc(Cc2cc(C(=O)N[C@@H]3C[C@H]3C)c(Nc3ccc(I)cc3F)c(F)c2F)c1F` (racemic) [Compound B-5, 3,4-Difluoro-2-(2-fluoro-4-iodoanilino)-5-[[3-fluoro-2-(methylsulfamoylamino)pyridin-4-yl]methyl]-N-[(1R, 2R)-(+/-)-2-methylcyclopropyl]benzamide (racemate)], the pIC50 with NCI-H2122 (setting [2]) is 8.30; against MEK1, 7.03; in the data set with A549 (setting [3]), 8.15; in the data set with Calu-6 (setting [4]), 7.54; at BRAF (Table 3; read-out: BRAF IC50), 8.22. The molecule further displayed an intrinsic clearance (microsomal CLint) at 0.99 µM in data set [1] of 22 µL/min/mg.
Take `CNS(=O)(=O)Nc1nccc(Cc2cc(C(=O)NC3CC3(F)F)c(Nc3ccc(I)cc3F)c(F)c2F)c1F` (racemic) [Compound B-6, (+/-)-N-(2,2-Difluorocyclopropyl)-3,4-difluoro-2-(2-fluoro-4-iodoanilino)-5-[[3-fluoro-2-(methylsulfamoylamino)pyridin-4-yl]methyl]benzamide (racemate)]: the pIC50 in the data set on NCI-H2122 (setting [2]) was 9.00; on MEK1, 7.01; with A549 (setting [3]), 8.70; in the data set on Calu-6 (setting [4]), 7.80; at BRAF (Table 3; read-out: BRAF IC50), 7.82. This molecule also returned a microsomal CLint at 0.99 µM in data set [1] of 20 µL/min/mg.
On to `CNS(=O)(=O)Nc1nccc(Cc2cc(C(N)=O)c(Nc3ccc(C4CC4)cc3F)c(F)c2F)c1F` [Compound A-1, 2-(4-cyclopropyl-2-fluoroanilino)-3,4-difluoro-5-[[3-fluoro-2-(methylsulfamoylamino)pyridin-4-yl]methyl]benzamide], for which the pIC50 with NCI-H2122 (Homo sapiens, NCI-H2122, 96 h) was 8.30; at MEK1 (Table 3, read-out: MEK1 IC50), 7.77; in the data set with A549 (Homo sapiens, A549, 96 h), 7.59; in the data set with Calu-6 (Homo sapiens, Calu-6, 96 h), 7.19; at BRAF (Table 3; read-out: BRAF IC50), 9.00. Moreover, in data set [1], the microsomal CLint at 0.99 µM came out at 1 µL/min/mg.
For the molecule `CCS(=O)(=O)Nc1nccc(Cc2cc(C(=O)NC3CC3)c(Nc3ccc(I)cc3F)c(F)c2F)c1F` [Compound A-39], the pIC50 with NCI-H2122 (setting [2]) was 8.15; at MEK1 (Table 3, read-out: MEK1 IC50), 7.39; in the data set with A549 (setting [3]), 7.52; with Calu-6 (setting [4]), 7.10; on BRAF (read-out: BRAF IC50; Table 3), 7.85.
For `COCC1(S(=O)(=O)Nc2cccc(Cc3cc(C(=O)NOC)c(Nc4ccc(I)cc4F)c(F)c3F)c2F)CC1` [Compound E-3], the pIC50 in the data set on NCI-H2122 (setting [5]) was 8.70; at MEK1 (Table 3, read-out: MEK1 IC50) it was 7.48; in the data set with A549 (setting [5]), 8.40; in the data set on Calu-6 (setting [5]), 8.15; at BRAF (Table 3; read-out: BRAF IC50), 8.30.
With `CS(=O)(=O)Nc1cccc(Cc2cc(C(N)=O)c(Nc3ccc(I)cc3F)c(F)c2F)c1F` [Compound E-13, 3,4-difluoro-2-(2-fluoro-4-iodoanilino)-5-[[2-fluoro-3-(methanesulfonamide)phenyl]methyl]benzamide], the pIC50 in the data set on NCI-H2122 (setting [5]) was 8.22; with A549 (setting [5]) it was 7.52; in the data set with Calu-6 (setting [5]), 7.08; on BRAF (read-out: BRAF IC50; Table 3) it was 9.00.
Take `CONC(=O)c1cc(Cc2ccnc(NS(=O)(=O)NC3(C)CCC3)c2F)c(F)c(F)c1Nc1ccc(C2CC2)cc1F` [Compound G-6, 2-(4-Cyclopropyl-2-fluoroanilino)-3,4-difluoro-5-[[3-fluoro-2-[(1-methylcyclobutyl)sulfamoylamino]pyridin-4-yl]methyl]-N-methoxybenzamide]: the pIC50 with NCI-H2122 (setting [2]) is 8.70; on MEK1 (Table 3, read-out: MEK1 IC50), 7.49; in the data set with Calu-6 (setting [4]), 7.64; at BRAF (read-out: BRAF IC50; Table 3) it was 7.82. The intrinsic clearance (microsomal CLint) at 0.99 µM in data set [1] worked out at 57 µL/min/mg.
For `CCS(=O)(=O)Nc1nccc(Cc2cc(C(=O)NOC)c(Nc3ccc(C4CC4)cc3F)c(F)c2F)c1F` [Compound G-8, 2-(4-Cyclopropyl-2-fluoroanilino)-5-[[2-(ethylsulfonylamino)-3-fluoropyridin-4-yl]methyl]-3,4-difluoro-N-methoxybenzamide], the negative-log IC50 (pIC50) is 7.60 in the data set on NCI-H2122 (Homo sapiens, NCI-H2122, 96 h); 7.28 at MEK1 (Table 3, read-out: MEK1 IC50); 6.63 in the data set with Calu-6 (Homo sapiens, Calu-6, 96 h); 8.15 at BRAF (Table 3; read-out: BRAF IC50). In data set [1], this molecule had a microsomal CLint at 0.99 µM of 26 µL/min/mg.
On the same counts, the results for `CONC(=O)c1cc(Cc2ccnc(NS(C)(=O)=O)c2F)c(F)c(F)c1Nc1ccc(C2CC2)cc1F` [Compound G-9, 2-(4-Cyclopropyl-2-fluoroanilino)-3,4-difluoro-5-[[3-fluoro-2-(methanesulfonamide)pyridin-4-yl]methyl]-N-methoxybenzamide] are 7.17, 6.64, 6.35, 7.89 and 22 µL/min/mg.
Consider `COCCNS(=O)(=O)Nc1nccc(Cc2cc(C(=O)NC3CC3)c(Nc3ccc(I)cc3F)n(C)c2=O)c1F` [Compound J-7, N-Cyclopropyl-2-(2-fluoro-4-iodoanilino)-5-[[3-fluoro-2-(2-methoxyethylsulfamoylamino)pyridin-4-yl]methyl]-1-methyl-6-oxopyridine-3-car boxamide], for which the pIC50 with NCI-H2122 (setting [2]) was 7.54; at MEK1 (Table 3, read-out: MEK1 IC50), 6.20; in the data set with Calu-6 (setting [4]), 6.42; on BRAF (read-out: BRAF IC50; Table 3), 7.92. In addition, the microsomal CLint at 0.99 µM in data set [1] came to 30 µL/min/mg.
Consider `CCS(=O)(=O)Nc1cccc(Cc2cc(C(=O)NOC(C)(C)C)c(Nc3ccc(I)cc3F)n(C)c2=O)c1F` [Compound K-9], for which the pIC50 in the data set on NCI-H2122 (setting [5]) is 8.10; on MEK1 (Table 3, read-out: MEK1 IC50), 7.64; in the data set with A549 (setting [5]) it was 7.77; in the data set with Calu-6 (setting [5]), 7.47; on BRAF (Table 3; read-out: BRAF IC50), 8.10.
On to `CCS(=O)(=O)Nc1nccc(Cn2cc(C(=O)NC3CC3)c(Nc3ccc(I)cc3F)c(C)c2=O)c1F` [Compound P-4, N-Cyclopropyl-1-[[2-(ethylsulfonylamino)-3-fluoropyridin-4-yl]methyl]-4-(2-fluoro-4-iodoanilino)-5-methyl-6-oxopyridine-3-carboxamide], for which the pIC50 in the data set on NCI-H2122 (setting [2]) is 7.62; at MEK1 (Table 3, read-out: MEK1 IC50), 7.47; in the data set with Calu-6 (setting [4]), 7.35; at BRAF (read-out: BRAF IC50; Table 3) it was 7.80. Further, the intrinsic clearance (microsomal CLint) at 0.99 µM in data set [1] was found to be 1 µL/min/mg.
On the same counts, the results for `CNS(=O)(=O)Nc1nccc(Cn2cc(C(=O)NC3CC3)c(Nc3ccc(I)cc3F)c(C)c2=O)c1F` [Compound P-6, N-Cyclopropyl-4-(2-fluoro-4-iodoanilino)-1-[[3-fluoro-2-(methylsulfamoylamino)pyridin-4-yl]methyl]-5-methyl-6-oxopyridine-3-carboxamide] are 8.40, 7.89, 8.10, 8.05 and 4 µL/min/mg.
Regarding `CNS(=O)(=O)Nc1nccc(Cn2cc(C(=O)NOC)c(Nc3ccc(I)cc3F)c(C)c2=O)c1F` [Compound P-7, 4-(2-Fluoro-4-iodoanilino)-1-[[3-fluoro-2-(methylsulfamoylamino)pyridin-4-yl]methyl]-N-methoxy-5-methyl-6-oxopyridine-3-carboxamide], the pIC50 in the data set with NCI-H2122 (setting [2]) is 8.15; on MEK1 (Table 3, read-out: MEK1 IC50), 8.15; with Calu-6 (setting [4]), 7.14; on BRAF (read-out: BRAF IC50; Table 3) it was 8.15. In addition, the microsomal CLint at 0.99 µM in data set [1] came to 12 µL/min/mg.
For `NC(=O)c1c(Nc2ccc(I)cc2F)cncc1Oc1cccc(NS(=O)(=O)C2CC2)c1` [Ref-4, reference compound], the pIC50 in the data set on NCI-H2122 (setting [2]) was 8.70; at MEK1 (Table 3, read-out: MEK1 IC50), 7.96; with A549 (setting [3]) it was 8.70; in the data set with Calu-6 (setting [4]) it was 7.74. The microsomal CLint at 0.99 µM in data set [1] was 32 µL/min/mg.
Turning to `CNS(=O)(=O)Nc1nccc(Cc2c(C)c3ccc(Oc4ncccn4)cc3oc2=O)c1F` [Ref-5, 3-[[3-Fluoro-2-(methylsulfamoylamino)pyridin-4-yl]methyl]-4-methyl-7-pyrimidin-2-yloxychromen-2-one, reference compound], the pIC50 with NCI-H2122 (setting [2]) was 7.57; in the data set with A549 (setting [3]), 6.95; in the data set on Calu-6 (setting [4]), 6.38; at BRAF (read-out: BRAF IC50; Table 3), 7.96. Also, the microsomal CLint at 0.99 µM in data set [1] was less than 1 µL/min/mg.
